Reference: patent US9833497B2, “Human originated EGF domain proteins and use of the same” (CHENGDU SOURCEBIO LIMITED-LIABILITY COMPANY, priority 2013, dated 2017)

What follows are substances tested on E. coli BL21 (assay: MIC against Gram-negative bacteria: E. coli BL21). Conditions: E. coli BL21; 5×10^5 CFU/mL; 10 h cultivation at 37° C.
Type: cell-based
Outline: (§1)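 MIC = lowest concentration of recombinant protein showing no growth. Test proteins: purified human-derived EGF domain proteins, two-fold dilution series, three wells per concentration; inoculum 5×10^5 CFU/mL in LB; incubation 37° C with shaking at 175 rpm.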

Going from “PRT1368 (EKRCPGDCSGHGFCDTGECYCEEGFTGLDCA; listed as Homo sapiens)” to “PRT1354 (RDRQCPRDCSNRGLCVDGQCVCEDGFTGPDCA; listed as Homo sapiens)”, the “MIC against E. coli BL21” value falls from 25 µg/mL to 12.5 µg/mL (2-fold).

For “PRT1423 (PVDPCFRANCEYQCQPLNQTSYLCVCAEGFAPIPHEPHRCQ; listed as Homo sapiens)”, the “MIC against E. coli BL21” value was 12.5 µg/mL.

Each substance was assayed on Citrobacter diversus (assay: MIC against Gram-negative bacteria: Citrobacter diversus). Conditions: Citrobacter diversus; 5×10^5 CFU/mL; 10 h cultivation at 37° C.
Type: cell-based
Outline: as §1

Going from “PRT1368 (EKRCPGDCSGHGFCDTGECYCEEGFTGLDCA; listed as Homo sapiens)” to “PRT1354 (RDRQCPRDCSNRGLCVDGQCVCEDGFTGPDCA; listed as Homo sapiens)”, the “MIC against C. diversus” value rises from 12.5 µg/mL to 25 µg/mL (2-fold).

“PRT1423 (PVDPCFRANCEYQCQPLNQTSYLCVCAEGFAPIPHEPHRCQ; listed as Homo sapiens)” was tested, and the “MIC against C. diversus” value was 25 µg/mL.

What follows are substances tested on Klebsiella pneumonia (assay: MIC against Gram-negative bacteria: Klebsiella pneumonia). Conditions: Klebsiella pneumonia; 5×10^5 CFU/mL; 10 h cultivation at 37° C.
Type: cell-based
Outline: as §1

Compared with “PRT1368 (EKRCPGDCSGHGFCDTGECYCEEGFTGLDCA; listed as Homo sapiens)”, “PRT1354 (RDRQCPRDCSNRGLCVDGQCVCEDGFTGPDCA; listed as Homo sapiens)” is 2-fold higher in “MIC against K. pneumonia” value: 25 µg/mL for the first, 50 µg/mL for the second.

For “PRT1423 (PVDPCFRANCEYQCQPLNQTSYLCVCAEGFAPIPHEPHRCQ; listed as Homo sapiens)”, the “MIC against K. pneumonia” value was 12.5 µg/mL.

The substances below were run on Pseudomonas aeruginosa (assay: MIC against Gram-negative bacteria: Pseudomonas aeruginosa). Conditions: Pseudomonas aeruginosa; 5×10^5 CFU/mL; 10 h cultivation at 37° C.
Type: cell-based
Outline: as §1

Compared with “PRT1368 (EKRCPGDCSGHGFCDTGECYCEEGFTGLDCA; listed as Homo sapiens)”, “PRT1354 (RDRQCPRDCSNRGLCVDGQCVCEDGFTGPDCA; listed as Homo sapiens)” is 2-fold higher in “MIC against P. aeruginosa” value: 12.5 µg/mL for the first, 25 µg/mL for the second.

“PRT1423 (PVDPCFRANCEYQCQPLNQTSYLCVCAEGFAPIPHEPHRCQ; listed as Homo sapiens)” was tested, and the “MIC against P. aeruginosa” value was 12.5 µg/mL.

The substances below were run on Serratia marcescens (assay: MIC against Gram-negative bacteria: Serratia marcescens). Conditions: Serratia marcescens; 5×10^5 CFU/mL; 10 h cultivation at 37° C.
Type: cell-based
Outline: as §1

Going from “PRT1368 (EKRCPGDCSGHGFCDTGECYCEEGFTGLDCA; listed as Homo sapiens)” to “PRT1354 (RDRQCPRDCSNRGLCVDGQCVCEDGFTGPDCA; listed as Homo sapiens)”, the “MIC against S. marcescens” value rises from 12.5 µg/mL to 25 µg/mL (2-fold).

In the case of “PRT1423 (PVDPCFRANCEYQCQPLNQTSYLCVCAEGFAPIPHEPHRCQ; listed as Homo sapiens)”, the “MIC against S. marcescens” value is reported as 12.5 µg/mL.

These substances were tested on E. coli DH5α (assay: Antibacterial activity: MIC and growth curve against E. coli DH5α in 96-well plate). Conditions: minimal inhibitory concentration against E. coli DH5α; 96-well plate, 5×10^5 CFU/mL, 37° C., judged after 8 h.
Type: cell-based
Outline: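 MIC taken as lowest protein level with no bacterial growth, tracked by A600 every 30 min during 37 °C, 175 rpm culture. Two-fold protein series 50-12.5 μg/mL final, triplicate wells, against 5×10^5 CFU/mL of LB-washed mid-log cells.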

Compared with “PRT1368 (EKRCPGDCSGHGFCDTGECYCEEGFTGLDCA; listed as Homo sapiens)”, “PRT1354 (RDRQCPRDCSNRGLCVDGQCVCEDGFTGPDCA; listed as Homo sapiens)” is 2-fold higher in MIC: 12.5 µg/mL for the first, 25 µg/mL for the second.

In the case of “PRT1423 (PVDPCFRANCEYQCQPLNQTSYLCVCAEGFAPIPHEPHRCQ; listed as Homo sapiens)”, the MIC is reported as 50 µg/mL.

The substances below were run on Moraxella catarrhalis (assay: MIC against Gram-negative bacteria: Moraxella catarrhalis). Conditions: Moraxella catarrhalis; 5×10^5 CFU/mL; 10 h cultivation at 37° C.
Type: cell-based
Outline: as §1

Compared with “PRT1368 (EKRCPGDCSGHGFCDTGECYCEEGFTGLDCA; listed as Homo sapiens)”, “PRT1354 (RDRQCPRDCSNRGLCVDGQCVCEDGFTGPDCA; listed as Homo sapiens)” is 4-fold higher in “MIC against M. catarrhalis” value: 12.5 µg/mL for the first, 50 µg/mL for the second.

For “PRT1423 (PVDPCFRANCEYQCQPLNQTSYLCVCAEGFAPIPHEPHRCQ; listed as Homo sapiens)”, the “MIC against M. catarrhalis” value was 50 µg/mL.

Each substance was assayed on Aeromonas hydrophila (assay: MIC against Gram-negative bacteria: Aeromonas hydrophila). Conditions: Aeromonas hydrophila; 5×10^5 CFU/mL; 10 h cultivation at 37° C.
Type: cell-based
Outline: as §1

Compared with “PRT1368 (EKRCPGDCSGHGFCDTGECYCEEGFTGLDCA; listed as Homo sapiens)”, “PRT1354 (RDRQCPRDCSNRGLCVDGQCVCEDGFTGPDCA; listed as Homo sapiens)” is 2-fold lower in “MIC against A. hydrophila” value: 25 µg/mL for the first, 12.5 µg/mL for the second.

For “PRT1423 (PVDPCFRANCEYQCQPLNQTSYLCVCAEGFAPIPHEPHRCQ; listed as Homo sapiens)”, the “MIC against A. hydrophila” value was 12.5 µg/mL.

Each substance was assayed on Enterobacter cloacae (assay: MIC against Gram-negative bacteria: Enterobacter cloacae). Conditions: Enterobacter cloacae; 5×10^5 CFU/mL; 10 h cultivation at 37° C.
Type: cell-based
Outline: as §1

First: PRT1368 (EKRCPGDCSGHGFCDTGECYCEEGFTGLDCA; listed as Homo sapiens)
Second: PRT1354 (RDRQCPRDCSNRGLCVDGQCVCEDGFTGPDCA; listed as Homo sapiens)
The “MIC against E. cloacae” value of the first is 2-fold lower: 12.5 µg/mL for the first, 25 µg/mL for the second.

With “PRT1423 (PVDPCFRANCEYQCQPLNQTSYLCVCAEGFAPIPHEPHRCQ; listed as Homo sapiens)” the “MIC against E. cloacae” value was 12.5 µg/mL.

The substances below were run on Proteus vulgaris (assay: MIC against Gram-negative bacteria: Proteus vulgaris). Conditions: Proteus vulgaris; 5×10^5 CFU/mL; 10 h cultivation at 37° C.
Type: cell-based
Outline: as §1

“PRT1368 (EKRCPGDCSGHGFCDTGECYCEEGFTGLDCA; listed as Homo sapiens)” and “PRT1354 (RDRQCPRDCSNRGLCVDGQCVCEDGFTGPDCA; listed as Homo sapiens)” are the same in “MIC against P. vulgaris” value: 12.5 µg/mL for the first, 12.5 µg/mL for the second.

In the case of “PRT1423 (PVDPCFRANCEYQCQPLNQTSYLCVCAEGFAPIPHEPHRCQ; listed as Homo sapiens)”, the “MIC against P. vulgaris” value is reported as 50 µg/mL.

The substances below were run on Proteus mirabilis (assay: MIC against Gram-negative bacteria: Proteus mirabilis). Conditions: Proteus mirabilis; 5×10^5 CFU/mL; 10 h cultivation at 37° C.
Type: cell-based
Outline: as §1

Compared with “PRT1368 (EKRCPGDCSGHGFCDTGECYCEEGFTGLDCA; listed as Homo sapiens)”, “PRT1354 (RDRQCPRDCSNRGLCVDGQCVCEDGFTGPDCA; listed as Homo sapiens)” is 2-fold higher in “MIC against P. mirabilis” value: 12.5 µg/mL for the first, 25 µg/mL for the second.

With “PRT1423 (PVDPCFRANCEYQCQPLNQTSYLCVCAEGFAPIPHEPHRCQ; listed as Homo sapiens)” the “MIC against P. mirabilis” value was 12.5 µg/mL.
